Test results: patent US20090118318A1, “Novel Diazaspiroalkanes and Their Use for Treatment of CCR8 Mediated Diseases” (priority 2005, published 2009)

What was measured:
[1] = target: T1, human recombinant chemokine CCR8 receptor (Homo sapiens, UniProt P51685); experiment: CCL1 SPA Binding Assay; details: inhibition of 125I CCL1 binding to CCR8 membranes from transfected CHO-K1 cells
T1 construct: purchased Euroscreen ES-136-M; host or cells: CHO-K1 cells (transfected), membrane preparation
Experimental: Membranes from CHO-K1 cells transfected with human recombinant chemokine CCR8 receptor (ES-136-M) were purchased from Euroscreen. Membrane preparations are stored at −70C in 7.5 mM Tris-Cl pH 7.5, 12.5 mM MgCl2, 0.3 mM EDTA, 1 mM EGTA, 250 mM sucrose until used.
The CCR8 membranes ([…]) were preincubated with Wheat Germ Agglutinin SPA beads (4.05 mg/ml) in assay buffer (50 mM HEPES, 1 mM CaCl2x2H2O, 5 mM MgCl2x6H2O, 75 mM NaCl, 0.1% BSA) at pH=7.4 for 2 hours on ice. A […] dose-response curve (final concentrations 50 μM, 16.7 μM, 5.6 μM, 1.9 μM, 0.62 μM, 0.21 μM, 0.069 μM, 0.023 μM) was prepared by diluting compounds by serial dilution 1:3 in DMSO. In the screening plate (Polystyrene NBS plates, Costar Corning 3604) 1 μl from the DMSO solutions of compounds was transferred into each well. 1 μl of DMSO was added to the blank control wells and 1 μl unlabeled CCL1 ([…]) was added to background control wells. 50 μl of the SPA bead-membrane mixture was added into each well. Finally, 50 μl ([…]) ^125I CCL1 (2000 Ci/mM) was added to each well. Plates were then incubated at RT with shaking (700 rpm) for 90 minutes followed by 30 minutes at RT without shaking. The plate was read in a Wallac MicroBeta counter for 2 minutes/well.

[2] = Human Microsomal Stability Assay; assay type: in vitro ADME; details: human microsomes (Xenotech); human microsomes 1 mg protein/mL, compound 2.5 μM, NADPH 2 mM, pH 7.4, 37° C.; read-out: Intrinsic clearance
Experimental: Human Microsomal Stability Assay
Samples at four time-points (0, 5, 15 and 30 minutes) are withdrawn and the enzymatic reaction is terminated by protein precipitation with 1% acetic acid in acetonitrile. The incubations are performed on a thermostated plate (37° C.) placed on a Tecan worktable, and all liquid handling was performed robotically. After centrifugation of the samples, the supernatants are pooled in sets of four before they are analysed by liquid chromatography with tandem mass spectrometry detection (LC/MS/MS) using multiple reaction monitoring (MRM). Data are presented as intrinsic Clearance (CLint), μl/min/mg protein, calculated from the initial linear part of the compound disappearance curve.

T1 sequence (P51685 whole entry): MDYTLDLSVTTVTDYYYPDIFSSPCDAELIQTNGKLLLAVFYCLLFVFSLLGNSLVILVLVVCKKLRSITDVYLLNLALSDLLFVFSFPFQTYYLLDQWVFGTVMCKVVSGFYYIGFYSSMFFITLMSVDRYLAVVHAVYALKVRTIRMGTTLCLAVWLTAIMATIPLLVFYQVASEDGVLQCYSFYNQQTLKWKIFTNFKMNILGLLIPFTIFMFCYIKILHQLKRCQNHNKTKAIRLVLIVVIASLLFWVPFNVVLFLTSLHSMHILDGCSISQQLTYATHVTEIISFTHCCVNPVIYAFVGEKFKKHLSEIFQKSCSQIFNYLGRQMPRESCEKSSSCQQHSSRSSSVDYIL

Row | IC50 [1] [nM] | microsomal CLint at 2.5 μM [2] [µL/min/mg] | Compound
1 | 643 | < 10 | O=C(O)Cc1ccccc1C(=O)N1CCC2(CCN(Cc3ccccc3Oc3ccccc3)CC2)CC1 [Example 1, (2-{[9-(2-phenoxybenzyl)-3,9-diazaspiro[5.5]undec-3-yl]carbonyl}phenyl)acetic Acid]
2 | 196 | < 10 | O=C(O)Cc1cc(Cl)ccc1C(=O)N1CCC2(CCN(Cc3ccccc3Oc3ccccc3)CC2)CC1 [Example 2, (5-chloro-2-{[9-(2-phenoxybenzyl)-3,9-diazaspiro[5.5]undec-3-yl]carbonyl}phenyl)acetic Acid]
3 | 144 | < 10 | O=C(O)Cc1ccccc1C(=O)N1CCC2(CCN(Cc3cccc(Oc4ccccc4)c3)CC2)CC1 [Example 3, (2-{[9-(3-phenoxybenzyl)-3,9-diazaspiro[5.5]undec-3-yl]carbonyl}phenyl)acetic Acid]
4 | 58 | < 10 | COc1ccccc1Oc1ccccc1CN1CCC2(CC1)CCN(C(=O)c1ccccc1CC(=O)O)CC2 [Example 4, [2-({9-[2-(2-methoxyphenoxy)benzyl]-3,9-diazaspiro[5.5]undec-3-yl}carbonyl)phenyl]acetic Acid]
5 | 17 | < 10 | COc1ccccc1Oc1ccccc1CN1CCC2(CC1)CCN(C(=O)c1ccc(Cl)cc1CC(=O)O)CC2 [Example 5, [5-chloro-2-({9-[2-(2-methoxyphenoxy)benzyl]-3,9-diazaspiro[5.5]undec-3-yl}carbonyl)phenyl]acetic Acid]
6 | 81 | 16 | COc1ccccc1Oc1ccccc1CN1CCC2(CC1)CCN(C(=O)c1cc(Cl)c(Cl)cc1C(=O)O)CC2 [Example 6, 4,5-dichloro-2-({9-[2-(2-methoxyphenoxy)benzyl]-3,9-diazaspiro[5.5]undec-3-yl}carbonyl)benzoic Acid]
7 | 100 | < 10 | COc1ccccc1Oc1ccccc1CN1CCC2(CC1)CCN(C(=O)c1ccccc1NC(=O)C(=O)O)CC2 [Example 7, {[2-({9-[2-(2-methoxyphenoxy)benzyl]-3,9-diazaspiro[5.5]undec-3-yl}carbonyl)phenyl]amino}(oxo)acetic Acid]
8 | 42 | < 10 | COc1ccccc1Oc1cccc(CN2CCC3(CC2)CCN(C(=O)c2ccccc2CC(=O)O)CC3)c1 [Example 8, [2-({9-[3-(2-methoxyphenoxy)benzyl]-3,9-diazaspiro[5.5]undec-3-yl}carbonyl)phenyl]acetic Acid]
9 | 71 | < 10 | COc1ccccc1Oc1cccc(CN2CCC3(CC2)CCN(C(=O)c2ccccc2C(=O)O)CC3)c1 [Example 9, 2-({9-[3-(2-methoxyphenoxy)benzyl]-3,9-diazaspiro[5.5]undec-3-yl}carbonyl)benzoic Acid]
10 | 405 | < 10 | COc1ccccc1Oc1cccc(CN2CCC3(CC2)CCN(C(=O)c2ccc(OCC(=O)O)cc2)CC3)c1 [Example 10, [4-({9-[3-(2-methoxyphenoxy)benzyl]-3,9-diazaspiro[5.5]undec-3-yl}carbonyl)phenoxy]acetic Acid]
11 | 520 | < 10 | COc1ccccc1Oc1cccc(CN2CCC3(CC2)CCN(C(=O)c2ccccc2OCC(=O)O)CC3)c1 [Example 11, [2-({9-[3-(2-methoxyphenoxy)benzyl]-3,9-diazaspiro[5.5]undec-3-yl}carbonyl)phenoxy]acetic Acid]
12 | – | > 200 | COc1ccccc1Oc1cccc(CN2CCC3(CC2)CCN(C(=O)c2ccc(Cl)cc2)CC3)c1 [Y, 3-(4-chlorobenzoyl)-9-[3-(2-methoxyphenoxy)benzyl]-3,9-diazaspiro[5.5]undecane, reference compound]

Row | Compound | IC50 [1] [nM] | microsomal CLint at 2.5 μM [2] [µL/min/mg]
13 | CC(C)COc1ccccc1CN1CCC2(CC1)CCN(C(=O)c1ccccc1CC(=O)O)CC2 [A, (2-{[9-(2-isobutoxybenzyl)-3,9-diazaspiro[5.5]undec-3-yl]carbonyl}phenyl)acetic Acid, reference compound] | 1060 | –
14 | CC(C)COc1ccccc1CN1CCC2(CC1)CCN(C(=O)c1ccccc1C(=O)O)CC2 [B, 2-{[9-(2-isobutoxybenzyl)-3,9-diazaspiro[5.5]undec-3-yl]carbonyl}benzoic Acid, reference compound] | 1370 | –
